≈ marks a conversion by molar mass, not a printed value.
How the values were obtained:
Experiment in all cases: in vitro antibacterial evaluation, MIC by broth dilution
Assay type in all cases: cell-based
Escherichia coli = details: 18 hours at 35° C.
How it was run: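 Broth dilution MIC per NCCLS M7-A2 in Mueller-Hinton II medium, inoculum 5×10^5 CFU/mL, antibiotic range 64-0.06 μg/mL. MIC taken as lowest concentration inhibiting growth.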

Staphylococcus sp. = details: broth dilution, 18 hours at 35° C.
How it was run: (§1)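 Broth dilution per NCCLS M7-A2 in Mueller-Hinton II medium, inoculum 5×10^5 CFU/mL, antibiotic range 64-0.06 μg/mL. MIC taken as lowest concentration inhibiting growth; Gram-positive panel includes recent clinical isolates resistant to methicillin, penicillin and/or vancomycin.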

Enterococcus sp. = details: broth dilution, 18 hours at 35° C.
How it was run: as §1

Streptococcus sp. = details: broth dilution, 18 hours at 35° C.
How it was run: as §1

MIC Escherichia coli (ATCC 25922) (Escherichia coli): >128 µg/mL | MIC Escherichia coli (GC 4559) (Escherichia coli): >128 µg/mL | MIC Escherichia coli (GC 4560) (Escherichia coli): 2 µg/mL (≈ 1.06 µM) | MIC Staphylococcus aureus (ATCC 29213) (Staphylococcus sp.; strain ATCC 29213): 4 µg/mL (≈ 2.13 µM) | MIC Staphylococcus aureus (GC 1131) (Staphylococcus sp.; strain GC 1131): 8 µg/mL (≈ 4.26 µM) | MIC Staphylococcus aureus (GC 3051) (Staphylococcus sp.; strain GC 3051): 4 µg/mL (≈ 2.13 µM) | MIC Staphylococcus aureus (GC 3053) (Staphylococcus sp.; strain GC 3053): 4 µg/mL (≈ 2.13 µM) | MIC Staphylococcus aureus (GC 4541) (Staphylococcus sp.; strain GC 4541): 4 µg/mL (≈ 2.13 µM) | MIC Staphylococcus aureus (GC 4542) (Staphylococcus sp.; strain GC 4542): 4 µg/mL (≈ 2.13 µM) | MIC Staphylococcus aureus-SMITH (GC 4543) (Staphylococcus sp.; strain GC 4543): 4 µg/mL (≈ 2.13 µM) | MIC Staphylococcus aureus (GC 4544) (Staphylococcus sp.; strain GC 4544): 8 µg/mL (≈ 4.26 µM) | MIC Staphylococcus aureus (GC 4545) (Staphylococcus sp.; strain GC 4545): 4 µg/mL (≈ 2.13 µM) | MIC Coagulase Negative Staphylococcus (GC 4547) (Staphylococcus sp.; strain GC 4547): 4 µg/mL (≈ 2.13 µM) | MIC Coagulase Negative Staphylococcus (GC 4548) (Staphylococcus sp.; strain GC 4548): 4 µg/mL (≈ 2.13 µM) | MIC Coagulase Negative Staphylococcus (GC 4549) (Staphylococcus sp.; strain GC 4549): 2 µg/mL (≈ 1.06 µM) | MIC Coagulase Negative Staphylococcus (GC 4551) (Staphylococcus sp.; strain GC 4551): 4 µg/mL (≈ 2.13 µM) | MIC Coagulase Negative Staphylococcus (GC 6257) (Staphylococcus sp.; strain GC 6257): 4 µg/mL (≈ 2.13 µM) | MIC Enterococcus avium (GC 4558) (Enterococcus sp.; Enterococcus avium (GC 4558)): 2 µg/mL (≈ 1.06 µM) | MIC Enterococcus faecalis (ATCC 29212) (Enterococcus sp.; Enterococcus faecalis (ATCC 29212)): 8 µg/mL (≈ 4.26 µM) | MIC Enterococcus faecalis (GC 4552) (Enterococcus sp.; Enterococcus faecalis (GC 4552)): 32 µg/mL (≈ 17 µM) | MIC Enterococcus faecalis (GC 4553) (Enterococcus sp.; Enterococcus faecalis (GC 4553)): 4 µg/mL (≈ 2.13 µM) | MIC Enterococcus faecalis (GC 4554) (Enterococcus sp.; Enterococcus faecalis (GC 4554)): 16 µg/mL (≈ 8.52 µM) | MIC Enterococcus faecalis (GC 6189) (Enterococcus sp.; Enterococcus faecalis (GC 6189)): 8 µg/mL (≈ 4.26 µM) | MIC Enterococcus faecium (GC 2243) (Enterococcus sp.; Enterococcus faecium (GC 2243)): 8 µg/mL (≈ 4.26 µM) | MIC Enterococcus faecium (GC 4556) (Enterococcus sp.; Enterococcus faecium (GC 4556)): 32 µg/mL (≈ 17 µM) | MIC Enterococcus faecium (GC 4557) (Enterococcus sp.; Enterococcus faecium (GC 4557)): 4 µg/mL (≈ 2.13 µM) | MIC Enterococcus avium (GC 4558) (Enterococcus sp.): 2 µg/mL (≈ 1.06 µM) | MIC Enterococcus faecalis (ATCC 29212) (Enterococcus sp.): 8 µg/mL (≈ 4.26 µM) | MIC Enterococcus faecalis (GC 2242) (Enterococcus sp.): 16 µg/mL (≈ 8.52 µM) | MIC Enterococcus faecalis (GC 2691) (Enterococcus sp.): 8 µg/mL (≈ 4.26 µM) | MIC Enterococcus faecalis (GC 3059) (Enterococcus sp.): 32 µg/mL (≈ 17 µM) | MIC Enterococcus faecalis (GC 4552) (Enterococcus sp.): 32 µg/mL (≈ 17 µM) | MIC Enterococcus faecalis (GC 4553) (Enterococcus sp.): 4 µg/mL (≈ 2.13 µM) | MIC Enterococcus faecalis (GC 4554) (Enterococcus sp.): 16 µg/mL (≈ 8.52 µM) | MIC Enterococcus faecalis (GC 6189) (Enterococcus sp.): 8 µg/mL (≈ 4.26 µM) | MIC Enterococcus faecium (GC 2243) (Enterococcus sp.): 8 µg/mL (≈ 4.26 µM) | MIC Enterococcus faecium (GC 4556) (Enterococcus sp.): 32 µg/mL (≈ 17 µM) | MIC Enterococcus faecium (GC 4557) (Enterococcus sp.): 4 µg/mL (≈ 2.13 µM) | MIC Enterococcus faecalis (GC 2242) (Enterococcus sp.; strain GC 2242): 16 µg/mL (≈ 8.52 µM) | MIC Enterococcus faecalis (GC 2691) (Enterococcus sp.; strain GC 2691): 8 µg/mL (≈ 4.26 µM) | MIC Enterococcus faecalis (GC 3059) (Enterococcus sp.; strain GC 3059): 32 µg/mL (≈ 17 µM) | MIC Streptococcus agalactiae (GC 4564) (Streptococcus sp.): 4 µg/mL (≈ 2.13 µM) | MIC Streptococcus pneumoniae (ATCC 6301) (Streptococcus sp.): 4 µg/mL (≈ 2.13 µM) | MIC Streptococcus pneumoniae (GC 1894) (Streptococcus sp.): 8 µg/mL (≈ 4.26 µM) | MIC Streptococcus pneumoniae (GC 4565) (Streptococcus sp.): 8 µg/mL (≈ 4.26 µM) | MIC Streptococcus pyogenes (GC 4563) (Streptococcus sp.): 4 µg/mL (≈ 2.13 µM) | MIC Streptococcus pneumoniae (ATCC 6301) (Streptococcus sp.; strain ATCC 6301): 4 µg/mL (≈ 2.13 µM) | MIC Streptococcus pneumoniae (GC 1894) (Streptococcus sp.; strain GC 1894): 8 µg/mL (≈ 4.26 µM) | MIC Streptococcus pyogenes (GC 4563) (Streptococcus sp.; strain GC 4563): 4 µg/mL (≈ 2.13 µM) | MIC Streptococcus agalactiae (GC 4564) (Streptococcus sp.; strain GC 4564): 4 µg/mL (≈ 2.13 µM) | MIC Streptococcus pneumoniae (GC 4565) (Streptococcus sp.; strain GC 4565): 8 µg/mL (≈ 4.26 µM)
Structure (SMILES): CC(c1ccccc1)C1NC(=O)CNC(=O)C(CO)NC(=O)C(C(O)C2CN(Cc3ccccc3)C(=NCc3ccccc3)N2C2OC(CO)C(O)C(O)C2O)NC(=O)C(C(O)C2CN(Cc3ccccc3)C(=NCc3ccccc3)N2Cc2ccccc2)NC(=O)C(Cc2ccc(OC3OC(CO)C(OC4OC5COC6(OC5C(O)C4O)C4CC5CC(C4)CC6C5)C(O)C3O)cc2)NC1=O (stereo not drawn) [Example 79, Cyclo[glycyl-β-methylphenylalanyl-O-[4-O-[4,6-O-(2-adamantylidene)hexotpyranosyl]hexopyranosyl]tyrosyl-3-[1,3-dibenzyl-2-(benzylimino)imidazolidin-4-yl]seryl-3-[1-benzyl-2-(benzylimino)-3-hexopyranosylimidazolidin-4-yl]serylseryl]]
MIC Staphylococcus haemolyticus (GC 4546) (Staphylococcus sp.; strain GC 4546): 4 µg/mL (≈ 2.13 µM)

From patent publication US6914045B2, “Glycopeptide antibiotics” (Wyeth Holdings Corporation, priority 2001, dated 2005)
